Experimental data taken from patent US8637525B2, “Compounds for the reduction of beta-amyloid production” (Bristol-Myers Squibb Company, priority 2009, dated 2014).
Read-outs that look alike come from different tables or passages of the source.

System: Aβ1-42 production
Test: Cellular assay for inhibition of Aβ1-42 production (H4 APP751 SWE clone 8.20)
Type: cell-based
Details: H4 APP751 SWE clone 8.20 cells, 19 h incubation, class symbols, read-out: Activity Rating (Aβ42 cellular IC50)
Summary of the method: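 Secreted peptide was quantified with a two-antibody homogeneous format combining Wallac-labelled 565, which recognises the Aβ42 end, and APC-labelled 26D6 at 0.8 and 75 ng/well respectively. Antibodies were diluted in 40 mM Tris-HCl, pH 7.4, 0.2% BSA and left overnight at 4 °C after a 19 h compound incubation.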

**Q.** For `CNc1nc(Nc2ccc(-n3cnc(Cl)c3)c(OC)c2)nc2c1CCC2c1ccc(F)cc1F` (single isomer, unassigned) [Example 109A, N^2-(4-(4-Chloro-1H-imidazol-1-yl)-3-methoxyphenyl)-7-(2,4-difluorophenyl)-N^4-methyl-6,7-dihydro-5H-cyclopenta[d]pyrimidine-2,4-diamine], which IC50 (19 h) is on record?
**A.** 1.5 to 9.9 nM

**Q.** For `COc1cc(Nc2nc3c(c(N4CC[C@H](F)C4)n2)CCC3c2ccc(F)cc2)ccc1-n1cnc(Cl)c1` (single isomer, unassigned) [Example 36], which IC50 (19 h) is on record?
**A.** 10 to 100 nM

**Q.** For `COc1cc(Nc2nc3c(c(N4CC[C@H](F)C4)n2)COC3c2ccc(F)cc2)ccc1-n1cnc(Cl)c1` (single isomer, unassigned) [Example 76], which IC50 (19 h) is on record?
**A.** 10 to 100 nM

**Q.** `CNc1nc(Nc2ccc(-n3cnc(C(F)F)c3)c(OC)c2)nc2c1CCC2c1ccc(F)cc1` (stereo not drawn) [Example 208, N2-(4-(4-(difluoromethyl)-1H-imidazol-1-yl)-3-methoxyphenyl)-7-(4-fluorophenyl)-N4-methyl-6,7-dihydro-5H-cyclopenta[d]pyrimidine-2,4-diamine] was tested. Which IC50 (19 h) did it give?
**A.** 10 to 100 nM

**Q.** `CNc1nc(Nc2ccc(-n3cnc(Cl)c3)c(OC)c2)nc2c1CCC2c1ccc(F)c(F)c1` (single isomer, unassigned) [Example 96A, N^2-(4-(4-chloro-1H-imidazol-1-yl)-3-methoxyphenyl)-7-(3,4-difluorophenyl)-N^4-methyl-6,7-dihydro-5H-cyclopenta[d]pyrimidine-2,4-diamine] was tested. Which IC50 (19 h) did it give?
**A.** 1.5 to 9.9 nM

**Q.** `CCN(C)c1nc(Nc2ccc(-n3cnc(Cl)c3)c(OC)c2)nc2c1CCC2c1ccccc1` (single isomer, unassigned) [Example 5B, N^2-(4-(4-chloro-1H-imidazol-1-yl)-3-methoxyphenyl)-N^4-ethyl-N^4-methyl-7-phenyl-6,7-dihydro-5H-cyclopenta[d]pyrimidine-2,4-diamine] was tested. Which IC50 did it give?
**A.** 10 to 100 nM
